Experimental data reported in the supplement of paper PMC10307832.

What was measured:
Test in all cases: relative viability (nuclei count vs DMSO), 5 days (fraction); higher = more cells survive
Omipalisib + Crizotinib = compound: COc1ncc(-c2ccc3nccc(-c4ccnnc4)c3c2)cc1NS(=O)(=O)c1ccc(F)cc1F [Omipalisib] + C[C@@H](Oc1cc(-c2cnn(C3CCNCC3)c2)cnc1N)c1c(Cl)ccc(F)c1Cl [Crizotinib] (partner 1 µM)
Summary of the method: (§1)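 Values are medians from duplicate plates. Each reflects relative viability, defined as the nuclei count of treated wells over that of vehicle wells. Lung cancer cell lines in 1536-well plates were pin-tool dosed one day after seeding with one drug alone or with a fixed anchor-drug dose plus five library-drug doses (not always all listed) in √10 steps, then fixed, stained and imaged at 4× after 5 days.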

Omipalisib + Bortezomib = compound: COc1ncc(-c2ccc3nccc(-c4ccnnc4)c3c2)cc1NS(=O)(=O)c1ccc(F)cc1F [Omipalisib] + CC(C)C[C@H](NC(=O)[C@H](Cc1ccccc1)NC(=O)c1cnccn1)B(O)O [Bortezomib] (partner 0.002 µM)
Summary of the method: as §1

Omipalisib + Trametinib = compound: COc1ncc(-c2ccc3nccc(-c4ccnnc4)c3c2)cc1NS(=O)(=O)c1ccc(F)cc1F [Omipalisib] + CC(=O)Nc1cccc(-n2c(=O)n(C3CC3)c(=O)c3c(Nc4ccc(I)cc4F)n(C)c(=O)c(C)c32)c1 [Trametinib] (partner 0.02 µM)
Summary of the method: as §1

Omipalisib + Decitabine = compound: COc1ncc(-c2ccc3nccc(-c4ccnnc4)c3c2)cc1NS(=O)(=O)c1ccc(F)cc1F [Omipalisib] + Nc1ncn([C@H]2C[C@H](O)[C@@H](CO)O2)c(=O)n1 [Decitabine] (partner 2 µM)
Summary of the method: as §1

Omipalisib + Luminespib = compound: COc1ncc(-c2ccc3nccc(-c4ccnnc4)c3c2)cc1NS(=O)(=O)c1ccc(F)cc1F [Omipalisib] + CCNC(=O)c1noc(-c2cc(C(C)C)c(O)cc2O)c1-c1ccc(CN2CCOCC2)cc1 [Luminespib] (partner 0.01 µM)
Summary of the method: as §1

Omipalisib + Tozasertib = compound: COc1ncc(-c2ccc3nccc(-c4ccnnc4)c3c2)cc1NS(=O)(=O)c1ccc(F)cc1F [Omipalisib] + Cc1cc(Nc2cc(N3CCN(C)CC3)nc(Sc3ccc(NC(=O)C4CC4)cc3)n2)n[nH]1 [Tozasertib] (partner 0.1 µM)
Summary of the method: as §1

Cell Line	relative viability (Omipalisib + Crizotinib; first compound 0.0003 µM)	relative viability (Omipalisib + Crizotinib; first compound 0.003 µM)	relative viability (Omipalisib + Crizotinib; first compound 0.03 µM)	relative viability (Omipalisib + Bortezomib; first compound 0.0003 µM)	relative viability (Omipalisib + Bortezomib; first compound 0.003 µM)	relative viability (Omipalisib + Bortezomib; first compound 0.03 µM)	relative viability (Omipalisib + Trametinib; first compound 0.0003 µM)	relative viability (Omipalisib + Trametinib; first compound 0.003 µM)	relative viability (Omipalisib + Trametinib; first compound 0.03 µM)	relative viability (Omipalisib + Decitabine; first compound 0.0003 µM)	relative viability (Omipalisib + Decitabine; first compound 0.003 µM)	relative viability (Omipalisib + Decitabine; first compound 0.03 µM)	relative viability (Omipalisib + Luminespib; first compound 0.0003 µM)	relative viability (Omipalisib + Luminespib; first compound 0.003 µM)	relative viability (Omipalisib + Luminespib; first compound 0.03 µM)	relative viability (Omipalisib + Tozasertib; first compound 0.0003 µM)	relative viability (Omipalisib + Tozasertib; first compound 0.003 µM)	relative viability (Omipalisib + Tozasertib; first compound 0.03 µM)
201T	0.988	1.05	0.731	1.13	1.11	0.777	0.681	0.658	0.465	0.816	0.809	0.53	0.95	1.05	0.463	0.883	0.894	0.473
A-427	0.818	0.736	0.639	0.969	0.903	0.913	0.665	0.38	0.358	0.538	0.443	0.417	0.857	0.678	0.863	0.206	0.188	0.163
ABC-1	0.811	0.899	0.49	0.324	0.299	0.246				1.05	0.99	0.742	0.688	0.362	0.484	0.161	0.189	0.213
BEN	0.635	0.531	0.464	0.773	0.527	0.46	0.828	0.671	0.602	0.695	0.612	0.606	0.274	0.276	0.288	0.43	0.426	0.457
CAL-12T	0.574	0.676	0.436	1.15	1.06	0.484	0.299	0.205	0.173				0.319	0.194	0.107	0.306	0.28	0.151
COR-L23	0.794	0.667	0.292	1	0.934	0.63	0.496	0.342	0.249	0.433	0.355	0.296	0.616	0.608	0.277	0.209	0.21	0.159
COR-L 105	0.799	0.779	0.558	0.89	0.656	0.411	0.469	0.423	0.414	0.593	0.589	0.556	0.703	0.796	0.591	0.356	0.359	0.316
ChaGo-K-1	1.04	1.09	1.07	1.06	0.993	1.04	0.818	0.747	0.666	0.494	0.448	0.47	0.615	0.593	0.503	0.242	0.202	0.167
EKVX	0.934	0.824	0.402	1.01	0.777	0.401	0.42	0.347	0.152	0.305	0.289	0.238	0.859	0.717	0.423	0.407	0.246	0.157
EMC-BAC-2	0.744	0.665	0.395	0.968	0.862	0.747	0.569	0.571	0.436	0.664	0.663	0.654	1.07	0.711	0.58	0.266	0.27	0.261
EPLC-272H	1.08	0.794	0.325	1.08	0.732	0.611	0.275	0.256	0.14	0.346	0.269	0.172	0.191	0.176	0.156	0.254	0.186	0.165
H3255	0.859	0.811	0.421	0.803	0.588	0.571	0.56	0.421	0.277	0.534	0.471	0.305	0.942	0.786	0.613	0.554	0.556	0.286
HARA	1.09	1.02	0.395	1.16	1.15	0.78	0.694	0.301	0.188	0.471	0.394	0.258	0.605	0.621	0.0924	0.11	0.0779	0.0711
HCC-15	0.793	0.734	0.655	0.988	0.848	0.813	0.32	0.207	0.165	0.591	0.394	0.372	0.331	0.383	0.206	0.373	0.38	0.237
HCC-44	0.783	0.74	0.308	0.874	0.694	0.513	0.983	0.921	0.468	0.95	0.914	0.787	1.08	1.09	0.295	1.03	0.953	0.234
HCC-78	0.299	0.232	0.192	0.338	0.32	0.252	0.596	0.558	0.275	0.623	0.462	0.344				0.327	0.328	0.21
HCC-366	0.365	0.0929	0.041	0.918	0.707	0.168	0.245	0.152	0.0615	0.285	0.217	0.105				0.113	0.0977	0.0346
HCC-827	0.952	0.885	0.373	1.06	1.17	0.828	0.472	0.37	0.202	0.298	0.244	0.239	0.588	0.302	0.194	0.453	0.365	0.187
HOP-62	0.817	1	0.693	0.803	0.617	0.625	0.372	0.248	0.198	0.211	0.264	0.199	0.961	1.05	0.883	0.399	0.356	0.3

Cell Line	relative viability (Omipalisib + Crizotinib; first compound 0.0003 µM)	relative viability (Omipalisib + Crizotinib; first compound 0.003 µM)	relative viability (Omipalisib + Crizotinib; first compound 0.03 µM)	relative viability (Omipalisib + Bortezomib; first compound 0.0003 µM)	relative viability (Omipalisib + Bortezomib; first compound 0.003 µM)	relative viability (Omipalisib + Bortezomib; first compound 0.03 µM)	relative viability (Omipalisib + Trametinib; first compound 0.0003 µM)	relative viability (Omipalisib + Trametinib; first compound 0.003 µM)	relative viability (Omipalisib + Trametinib; first compound 0.03 µM)	relative viability (Omipalisib + Decitabine; first compound 0.0003 µM)	relative viability (Omipalisib + Decitabine; first compound 0.003 µM)	relative viability (Omipalisib + Decitabine; first compound 0.03 µM)	relative viability (Omipalisib + Luminespib; first compound 0.0003 µM)	relative viability (Omipalisib + Luminespib; first compound 0.003 µM)	relative viability (Omipalisib + Luminespib; first compound 0.03 µM)	relative viability (Omipalisib + Tozasertib; first compound 0.0003 µM)	relative viability (Omipalisib + Tozasertib; first compound 0.003 µM)	relative viability (Omipalisib + Tozasertib; first compound 0.03 µM)
LC-2-ad	0.478	0.395	0.253	1.11	0.978	0.888	0.86	0.754	0.605	0.812	0.739	0.63	0.825	1.05	0.461	0.349	0.401	0.289
LCLC-97TM1	0.243	0.159	0.11	0.589	0.477	0.146	0.179	0.104	0.117	0.216	0.168	0.161	0.692	0.511	0.202	0.169	0.119	0.0744
LCLC-103H	1.07	0.922	0.63	0.943	0.891	0.732	0.602	0.524	0.401	0.69	0.639	0.4	0.999	0.714	0.427	0.406	0.361	0.18
LK-2	0.241	0.234	0.247				0.595	0.4	0.201	0.235	0.201	0.147	0.153	0.2	0.174	0.17	0.166	0.183
LOU-NH91	0.737	0.65	0.504	0.543	0.517	0.453	0.788	0.666	0.593	0.857	0.747	0.665	0.345	0.386	0.337	0.706	0.621	0.441
LU99A	0.55	0.449	0.225	1.01	0.728	0.495	0.5	0.367	0.22	0.912	0.519	0.311	0.201	0.206	0.24	0.289	0.233	0.215
LXF-289	0.846	0.924	0.712	1.03	0.99	0.808	0.65	0.747	0.407	0.365	0.371	0.281	0.536	0.456	0.232	0.21	0.0991	0.0753
NCI-H23	0.425	0.263	0.283	0.877	0.684	0.306	0.353	0.244	0.152	0.308	0.24	0.243	0.225	0.219	0.218	0.342	0.295	0.265
NCI-H358	0.502	0.6	0.303				0.136	0.115	0.107	0.199	0.174	0.141	0.325	0.221	0.0986	0.126	0.108	0.0977
NCI-H1395							1.05	0.83	0.615	0.661	0.625	0.567	0.622	0.662	0.418	0.743	0.764	0.506
NCI-H1792	0.971	0.848	0.269	0.872	0.927	0.398	0.42	0.169	0.116	0.428	0.37	0.101	0.328	0.41	0.184			
NCI-H1793							0.375	0.334	0.194	0.398	0.282	0.214	0.19	0.159	0.159	0.287	0.209	0.113
NCI-H1944	1	0.858	0.439				0.355	0.246	0.197	0.384	0.356	0.239	0.686	0.417	0.296	0.237	0.217	0.192
NCI-H2170	1.04	0.786	0.418				0.801	0.545	0.303	0.446	0.339	0.29	0.543	0.178	0.189	0.607	0.482	0.354
NCI-H2228	0.335	0.337	0.215	0.905	0.577	0.404	0.505	0.187	0.173				0.131	0.0865	0.11	0.343	0.171	0.126
NCI-H2342							0.732	0.583	0.449	0.589	0.479	0.408	0.622	0.45	0.446	0.425	0.442	0.354
SK-MES-1	0.954	0.656	0.611				0.512	0.419	0.285	0.363	0.262	0.241	0.635	0.421	0.269	0.901	0.875	0.53
SW 900							0.625	0.915	0.396	0.386	0.344	0.392	0.189	0.171	0.166	0.556	0.562	0.423
